Measurements reported in US20210038607A1, “OXADIAZOLYLTHIOPHENE DERIVATIVES USEFUL AS HISTONE DEACETYLASE INHIBITORS” (Karus Therapeutics Limited, priority 2018, published 2021).

Legend:
Human HDAC2 = target: T1, Human HDAC2 (Homo sapiens, UniProt Q92769); test: HDAC2 biochemical assay, AMC-labeled peptide substrate; conditions: read-out: HDAC Isoform IC50 (nM) 2
T1 construct: full length with C-terminal GST-tag; GST (C); host or cells: baculovirus expression system
Description: (§1) Activity against all zinc-dependent HDACs 1 to 11 was assessed by using an acetylated AMC-labeled peptide substrate. The substrate RHKK(Ac)AMC was used for HDAC1, HDAC2, HDAC3, HDAC6 and HDAC10; the substrate used for HDAC8 was RHK(Ac)K(Ac)AMC. Activity against the class IIa HDACs (HDAC4, 5, 7, 9) and HDAC11 was determined using a class IIa-specific substrate, BOC-Lys(trifluoroacetyl)-AMC (“Trifluoroacetyl Lysine”; see Lahm et al, 2007, PNAS, 104, 17335-17340). All assays were based on the AMC-labeled substrate and developer combination.
(§2) The protocol involved a two-step reaction: first, the substrate with the acetylated lysine side chain is incubated with a sample containing HDAC activity, to produce the deacetylated products, which are then digested in the second step by the addition of developer to produce the fluorescent signal proportional to the amount of deacetylated substrates.
Human HDAC2 (GenBank Accession No. NM_001527), full length with C-terminal GST-tag, MW=82.9 kDa, expressed inbaculovirus expression system.
(§3) Assay Buffer: 50 mM Tris-HCl, pH8.0, 137 mM NaCl, 2.7 mM KCl, 1 mM MgC2. Before use, 1 mg/mL BSA and DMSO are added.
HDAC2: 0.07 ng/ul HDAC2 and 50 μM HDAC substrate are in the reaction buffer with 1% DMSO final. Incubate for 1 hour at 30° C.
(§4) Stage 1: Deacetylation of substrate by incubation of HDAC enzymes with compounds
(§5) Stage 2: Development by addition of Developer to digest the deacetylated substrate, and generate the fluorescent colour; Detection: 360/460 Ex/Em

Human HDAC1 = target: T2, Human HDAC1 (Homo sapiens, UniProt Q13547); test: HDAC1 biochemical assay, AMC-labeled peptide substrate; conditions: read-out: HDAC Isoform IC50 (nM) 1
T2 construct: full length with C-terminal His-tag and C-terminal FLAG-tag; His (C); FLAG (C); host or cells: baculovirus expression system
Method in brief: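 Baculovirus-expressed full-length human HDAC1 with His and FLAG tags, 0.3 ng/ul, incubated 1 h at 30° C with compound and 50 μM RHKK(Ac)AMC in Tris pH 8.0 buffer with BSA and 1% DMSO. Developer then releases AMC from deacetylated substrate; fluorescence read at 360/460 nm.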

Human HDAC5 = target: T3, Human HDAC5 (Homo sapiens, UniProt Q9UQL6); test: HDAC5 biochemical assay, class IIa-specific substrate; conditions: read-out: HDAC Isoform IC50 (nM) 5
T3 construct: full length with C-terminal His tag, MW=51.1 kDa; His (C); host or cells: baculovirus expression system
Method in brief: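 Full-length C-terminal His-tagged HDAC5 from baculovirus (0.05 ng/ul) incubated 30 min at room temperature with 50 μM Boc-Lys(trifluoroacetyl)-AMC and compound, Tris pH 8.0 buffer with BSA, 1% DMSO. Developer then releases AMC; fluorescence 360/460 nm.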

Human HDAC11 = target: T4, Human HDAC11 (Homo sapiens, UniProt Q96DB2); test: HDAC11 biochemical assay, class IIa-specific substrate; conditions: read-out: HDAC Isoform IC50 (nM) 11
T4 construct: Human HDAC11 (full length); His (N); host or cells: baculovirus expression system
T4 sequence (Q96DB2 1-347): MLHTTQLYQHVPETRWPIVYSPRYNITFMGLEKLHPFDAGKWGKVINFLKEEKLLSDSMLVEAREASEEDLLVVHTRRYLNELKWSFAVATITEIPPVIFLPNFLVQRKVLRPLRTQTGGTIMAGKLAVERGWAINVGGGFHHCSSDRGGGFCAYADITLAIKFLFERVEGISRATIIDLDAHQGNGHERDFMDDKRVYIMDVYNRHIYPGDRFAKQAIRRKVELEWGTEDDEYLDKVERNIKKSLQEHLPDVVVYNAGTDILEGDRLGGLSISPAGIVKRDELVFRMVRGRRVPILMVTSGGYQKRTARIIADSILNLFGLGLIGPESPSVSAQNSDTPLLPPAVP
Description: as §1, §2
Human HDAC11 (full length) (GenBank Accession No. NM_024827) with N-terminal His tag, MW=42.9 kDa, expressed in baculovirus expression system.
as §3
HDAC11: 5 ng/ul HDAC11 and 50 μMHDAC substrate are in the reaction buffer with 1% DMSO final. Incubate for 30 minutes at 30° C.
as §4, §5

Human HDAC10 = target: T5, Human HDAC10 (Homo sapiens, UniProt Q969S8); test: HDAC10 biochemical assay, AMC-labeled peptide substrate; conditions: read-out: HDAC Isoform IC50 (nM) 10
T5 construct: Human HDAC10 (a.a. 1-481); GST (N); His (C); host or cells: baculovirus expression system
T5 sequence (Q969S8 1-481): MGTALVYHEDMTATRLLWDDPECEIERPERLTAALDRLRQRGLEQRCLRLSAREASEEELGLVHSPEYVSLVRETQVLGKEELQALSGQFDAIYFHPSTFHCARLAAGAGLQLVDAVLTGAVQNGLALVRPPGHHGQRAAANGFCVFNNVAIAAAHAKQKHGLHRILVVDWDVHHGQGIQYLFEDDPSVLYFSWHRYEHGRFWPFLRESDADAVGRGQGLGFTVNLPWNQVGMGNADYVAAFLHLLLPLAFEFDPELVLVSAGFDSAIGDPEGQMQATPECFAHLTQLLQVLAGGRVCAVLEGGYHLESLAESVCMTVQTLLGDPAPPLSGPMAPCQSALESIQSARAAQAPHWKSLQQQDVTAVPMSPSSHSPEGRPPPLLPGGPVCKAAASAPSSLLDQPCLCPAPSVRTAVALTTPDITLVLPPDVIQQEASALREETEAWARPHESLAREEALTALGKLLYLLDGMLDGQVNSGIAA
Description: as §1, §2
Human HDAC10 (a.a. 1-481), GenBank Accession No. NM_032019 with N-terminal GST tag and C-terminal His tag, MW=78 kDa, expressed in baculovirus expression system.
as §3
HDAC10: 12 ng/ul HDAC10 and 50 μM HDAC substrate are in the reaction buffer with 1% DMSO final. Incubate for 2 hours at 30° C.
as §4, §5

Human HDAC4 = target: T6, Human HDAC4 (Homo sapiens, UniProt P56524); test: HDAC4 biochemical assay, class IIa-specific substrate; conditions: read-out: HDAC Isoform IC50 (nM) 4
T6 construct: amino acids 627-1085 with N-terminal GST tag; GST (N); host or cells: baculovirus expression system
Method in brief: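 GST-tagged human HDAC4 (aa 627-1085, baculovirus) at 0.004 ng/ul was incubated 30 min at room temperature with 50 μM class IIa-specific substrate BOC-Lys(trifluoroacetyl)-AMC in Tris-HCl pH 8.0 buffer with BSA, 1% DMSO. Developer then released AMC, read at 360/460 nm.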

T6 sequence (P56524 627-1084 limits assumed): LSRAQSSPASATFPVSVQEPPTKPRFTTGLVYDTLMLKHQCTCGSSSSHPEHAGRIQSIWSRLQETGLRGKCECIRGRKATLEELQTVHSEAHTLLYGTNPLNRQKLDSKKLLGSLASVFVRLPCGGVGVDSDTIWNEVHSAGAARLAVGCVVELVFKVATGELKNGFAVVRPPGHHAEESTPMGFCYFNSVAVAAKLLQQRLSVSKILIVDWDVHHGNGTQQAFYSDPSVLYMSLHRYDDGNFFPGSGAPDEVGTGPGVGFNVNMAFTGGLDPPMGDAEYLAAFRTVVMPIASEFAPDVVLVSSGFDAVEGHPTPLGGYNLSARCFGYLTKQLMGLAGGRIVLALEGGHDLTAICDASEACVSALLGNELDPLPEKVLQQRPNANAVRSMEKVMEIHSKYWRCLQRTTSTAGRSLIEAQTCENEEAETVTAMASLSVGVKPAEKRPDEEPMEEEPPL
T2 sequence (Q13547 whole entry, canonical isoform): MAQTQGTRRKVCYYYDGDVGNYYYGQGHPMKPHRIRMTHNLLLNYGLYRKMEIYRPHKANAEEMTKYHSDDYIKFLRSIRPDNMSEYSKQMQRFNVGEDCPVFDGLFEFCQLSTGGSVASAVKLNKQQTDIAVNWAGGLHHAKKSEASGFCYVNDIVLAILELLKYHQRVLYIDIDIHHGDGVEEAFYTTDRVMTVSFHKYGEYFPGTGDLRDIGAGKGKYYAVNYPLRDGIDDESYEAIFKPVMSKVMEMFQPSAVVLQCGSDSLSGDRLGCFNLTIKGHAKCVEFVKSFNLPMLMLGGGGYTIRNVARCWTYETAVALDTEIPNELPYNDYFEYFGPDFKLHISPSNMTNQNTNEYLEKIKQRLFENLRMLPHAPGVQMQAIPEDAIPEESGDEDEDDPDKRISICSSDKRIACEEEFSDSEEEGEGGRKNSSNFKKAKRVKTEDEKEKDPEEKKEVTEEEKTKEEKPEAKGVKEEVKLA
T1 sequence (Q92769 whole entry, canonical isoform): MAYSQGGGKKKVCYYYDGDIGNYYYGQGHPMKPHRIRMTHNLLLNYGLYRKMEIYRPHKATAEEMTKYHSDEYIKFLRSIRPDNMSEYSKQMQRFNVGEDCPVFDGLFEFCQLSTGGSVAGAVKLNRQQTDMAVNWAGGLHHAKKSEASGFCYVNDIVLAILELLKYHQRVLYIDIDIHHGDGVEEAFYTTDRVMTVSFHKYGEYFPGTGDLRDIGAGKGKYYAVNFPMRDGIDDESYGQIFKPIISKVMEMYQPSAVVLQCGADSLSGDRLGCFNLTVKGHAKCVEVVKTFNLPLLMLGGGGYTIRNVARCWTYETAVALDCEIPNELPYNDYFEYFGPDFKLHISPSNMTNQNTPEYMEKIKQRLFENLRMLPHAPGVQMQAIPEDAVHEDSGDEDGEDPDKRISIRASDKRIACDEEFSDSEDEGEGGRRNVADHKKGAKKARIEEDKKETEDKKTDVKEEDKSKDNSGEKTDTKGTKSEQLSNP
T3 sequence (Q9UQL6 656-1122 limits assumed): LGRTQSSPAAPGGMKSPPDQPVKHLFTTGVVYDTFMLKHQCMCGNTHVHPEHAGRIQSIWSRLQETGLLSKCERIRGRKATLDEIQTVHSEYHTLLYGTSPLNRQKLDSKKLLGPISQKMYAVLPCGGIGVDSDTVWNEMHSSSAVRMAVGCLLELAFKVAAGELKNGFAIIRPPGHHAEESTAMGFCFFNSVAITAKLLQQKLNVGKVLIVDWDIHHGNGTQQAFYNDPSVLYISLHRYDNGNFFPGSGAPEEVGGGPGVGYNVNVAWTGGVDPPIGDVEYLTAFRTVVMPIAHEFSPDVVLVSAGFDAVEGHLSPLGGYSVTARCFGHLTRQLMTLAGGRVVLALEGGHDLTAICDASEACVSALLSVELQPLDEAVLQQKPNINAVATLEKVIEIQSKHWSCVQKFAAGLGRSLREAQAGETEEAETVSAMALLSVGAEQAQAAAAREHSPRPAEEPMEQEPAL

SMILES	IC50 (Human HDAC2) [nM]	IC50 (Human HDAC1) [nM]	IC50 (Human HDAC5) [nM]	IC50 (Human HDAC11) [nM]	IC50 (Human HDAC10) [nM]	IC50 (Human HDAC4) [nM]
O=C(c1cnnc(N(Cc2ccc(-c3noc(C(F)(F)F)n3)s2)c2cnccn2)c1)N1C[C@H]2C[C@@H]1CO2 [Example FW, 5-[(1R,4R)-2-Oxa-5-azabicyclo[2.2.1]heptane-5-carbonyl]-N-(pyrazin-2-yl)-N-({5-[5-(trifluoromethyl)-1,2,4-oxadiazol-3-yl]thiophen-2-yl}methyl)pyridazin-3-amine]	> 10000	> 10000	≤ 1000	> 10000	> 10000	≤ 10000
O=C(c1ccc(N(Cc2ccc(-c3noc(C(F)(F)F)n3)s2)c2cnccn2)nn1)N1CCC2(COC2)C1 [Example FJ, 6-{2-Oxa-6-azaspiro[3.4]octane-6-carbonyl}-N-(pyrazin-2-yl)-N-({5-[5-(trifluoromethyl)-1,2,4-oxadiazol-3-yl]thiophen-2-yl}methyl)pyridazin-3-amine]	> 10000	≤ 10000	≤ 500	> 10000	> 10000	≤ 500
NC(=O)c1nccnc1N(Cc1ccc(-c2noc(C(F)(F)F)n2)s1)c1cnccn1 [Example GO, 3-[(Pyrazin-2-yl)({5-[5-(trifluoromethyl)-1,2,4-oxadiazol-3-yl]thiophen-2-yl}methyl)amino]pyrazine-2-carboxamide]	> 10000	> 10000	≤ 10000	> 10000	> 10000	≤ 10000
Nc1cnnc(N(Cc2ccc(-c3noc(C(F)(F)F)n3)s2)c2cnccn2)c1 [Example FL, N3-(Pyrazin-2-yl)-N3-({5-[5-(trifluoromethyl)-1,2,4-oxadiazol-3-yl]thiophen-2-yl}methyl)pyridazine-3,5-diamine]	> 10000	> 10000	≤ 500	> 10000	> 10000	≤ 500
Cc1cnnc(N(Cc2ccc(-c3noc(C(F)(F)F)n3)s2)c2cnccn2)c1 [Example GN, 5-Methyl-N-(pyrazin-2-yl)-N-({5-[5-(trifluoromethyl)-1,2,4-oxadiazol-3-yl]thiophen-2-yl}methyl)pyridazin-3-amine]	> 10000	> 10000	≤ 1000	> 10000	> 10000	≤ 1000
FC(F)(F)c1cncc(N(Cc2ccc(-c3noc(C(F)(F)F)n3)s2)c2cnccn2)n1 [Example BR, N-(Pyrazin-2-yl)-6-(trifluoromethyl)-N-({5-[5-(trifluoromethyl)-1,2,4-oxadiazol-3-yl]thiophen-2-yl}methyl)pyrazin-2-amine]	> 10000	> 10000	≤ 10000	> 10000	> 10000	≤ 10000
CC(F)(F)c1cnnc(N(Cc2ccc(-c3noc(C(F)(F)F)n3)s2)c2cnccn2)c1 [Example GU, 5-(1,1-Difluoroethyl)-N-(pyrazin-2-yl)-N-({5-[5-(trifluoromethyl)-1,2,4-oxadiazol-3-yl]thiophen-2-yl}methyl)pyridazin-3-amine]	> 10000	> 10000	≤ 10000	> 10000	> 10000	≤ 10000
O=C(c1cnnc(N(Cc2ccc(-c3noc(C(F)(F)F)n3)s2)c2cnccn2)c1)N1CCC12COC2 [Example GF, 5-{6-Oxa-1-azaspiro[3.3]heptane-1-carbonyl}-N-(pyrazin-2-yl)-N-({5-[5-(trifluoromethyl)-1,2,4-oxadiazol-3-yl]thiophen-2-yl}methyl)pyridazin-3-amine]	> 10000	> 10000	≤ 500	> 10000	> 10000	≤ 1000
O=C(O)c1ccc(N(Cc2sc(-c3noc(C(F)(F)F)n3)cc2F)c2cnccn2)nn1 [Example EZ, 6-[({3-Fluoro-5-[5-(trifluoromethyl)-1,2,4-oxadiazol-3-yl]thiophen-2-yl}methyl)(pyrazin-2-yl)amino]pyridazine-3-carboxylic acid]	> 10000	> 10000	≤ 10000	> 10000	> 10000	≤ 10000
